From patent publication US11147782B1, “GHB formulation and method for its manufacture” (JAZZ PHARMACEUTICALS IRELAND LIMITED, priority 2015, dated 2021)

What was measured:
[1] = Affinity for the exchange site of the anion exchange resin, estimated from pKa; type: physicochemical; details: estimated from pKa relative to other short-chain fatty acids
Text: The affinity can be estimated based on the pKa of GHB (4.44) relative to other short-chain fatty acids for which affinities are known.

[2] = Xyrem solution is 500 mg/mL (42 wt %); solubility limit considerably higher; cited from earlier work

Row | Structure (SMILES) | affinity relative to chloride on the anion exchange resin [1] | solubility limit in water [2]
1 | O=C(O)O [Bicarbonate] | about 27% | –
2 | O=C(O)CCCO [sodium oxybate, Sodium oxybate] | – | > 500 mg/mL
